In ChEMBL document CHEMBL1130369, “Design, syntheses and potentiating activities against methicillin resistant Staphylococcus aureus of cyclic analogs of LY301621” (1997):

Key:
Staphylococcus aureus [1] = assay: Minimal synergizing concentration required to inhibit growth of Staphylococcus aureus strain 447 in the presence of 4 ug/mL of methicillin.; format: functional
Staphylococcus aureus [2] = assay: Ability of 40 ug to enlarge the zone of inhibition produced by 100 microg of methicillin in disk assay using Staphylococcus aureus strain 447; No synergy; format: functional, organism-based
Staphylococcus aureus [3] = assay: Minimum concentration required to inhibit growth of methicillin sensitive Staphylococcus aureus strain 446; format: functional
Staphylococcus aureus [4] = assay: Ability of 40 ug to enlarge the zone of inhibition produced by 100 microg of methicillin in disk assay using Staphylococcus aureus strain 447; synergy; format: functional, organism-based
Staphylococcus aureus [5] = assay: Ability of 40 ug to enlarge the zone of inhibition produced by 100 microg of methicillin in disk assay using Staphylococcus aureus strain 447; Synergy; format: functional, organism-based
Staphylococcus aureus [6] = assay: Minimum concentration required to inhibit growth of methicillin resistant Staphylococcus aureus strain 447; format: functional
[7] = Staphylococcus aureus, read-out: MIC

SMILES	MSC (Staphylococcus aureus [1])	MIC (Staphylococcus aureus [3]; [7])	other results
O=C1N[C@@H](C(c2ccccc2)c2ccccc2)C(=O)N2CCC[C@@H]2C(=O)NCc2ccccc2-c2ccccc21	>100 µg/mL	> 100 µg/mL	Synergy with methicillin (Staphylococcus aureus [2]): No synergy
O=C(N[C@@H](C(=O)N1CCC[C@H]1C(=O)N[C@H](CO)Cc1ccccc1)C(c1ccccc1)c1ccccc1)OCc1ccccc1	12.5 µg/mL	> 100 µg/mL	Synergy with methicillin (Staphylococcus aureus [4]): synergy
O=C1N[C@@H](C(c2ccccc2)c2ccccc2)C(=O)N2CCCC2C(=O)N[C@](CO)(Cc2ccccc2)C(=O)Nc2ccccc21 (single isomer, unassigned)	>128 µg/mL	–	Synergy with methicillin (Staphylococcus aureus [5]): Synergy; MIC (Staphylococcus aureus [6]): >128 µg/mL
O=C1N[C@@H](C(c2ccccc2)c2ccccc2)C(=O)N2CCCC2C(=O)N[C@@](CO)(Cc2ccccc2)C(=O)Nc2ccccc21 (single isomer, unassigned)	>128 µg/mL	–	MIC (Staphylococcus aureus [3]): >128 µg/mL
O=C1N[C@@H](C(c2ccccc2)c2ccccc2)C(=O)N2CCCC2C(=O)NC(CO)(Cc2ccccc2)C(=O)Nc2ccccc21 (single isomer, unassigned; 1a) [listing 1 of 2 here]	>100 µg/mL	> 128 µg/mL	MIC (Staphylococcus aureus [6]; [7]): > 100 µg/mL
O=C1N[C@@H](C(c2ccccc2)c2ccccc2)C(=O)N2CCCC2C(=O)NC(CO)(Cc2ccccc2)C(=O)Nc2ccccc21 (single isomer, unassigned; 1a) [listing 2 of 2 here]	–	–	Synergy with methicillin (Staphylococcus aureus [2]): No synergy
O=C1N[C@@H](C(c2ccccc2)c2ccccc2)C(=O)N2CCCC2C(=O)NC(CO)(Cc2ccccc2)C(=O)Nc2ccccc21 (single isomer, unassigned; 1b) [listing 1 of 2 here]	100 µg/mL	> 100 µg/mL	–
O=C1N[C@@H](C(c2ccccc2)c2ccccc2)C(=O)N2CCCC2C(=O)NC(CO)(Cc2ccccc2)C(=O)Nc2ccccc21 (single isomer, unassigned; 1b) [listing 2 of 2 here]	–	–	Synergy with methicillin (Staphylococcus aureus [5]): Synergy
